Assay results reported in patent US4000281A, “Pyrazole derivatives” (priority 1971, dated 1976).
Read-outs that look alike come from different tables or passages of the source.

How the values were obtained:
Assay type in all cases: in vivo, mice
Influenza viruses = experiment: Mouse-Survival Test (Test No. 1), Influenza virus strain not given; details: unidentified influenza virus, 360 h; for response vs control in vivo at 500 mg/kg / response vs control in vivo at 50 mg/kg / response vs control in vivo at 5 mg/kg: read-out: Survival Index (S.I.); for responders at 500 mg/kg / responders at 50 mg/kg / responders at 5 mg/kg: read-out: Survival Percent
Influenza virus Jap 305 [1] = details: 1 dose, 30 minutes before infection, 15 multiples of LD50
Influenza virus Jap 305 [2] = experiment: Mouse-Survival Test (Test No. 1), Influenza Jap 305; details: for S.I.: significant if >1.24
[3] = Jap 305, 50 mg/kg PO, virus dose 15 multiples of LD50
[4] = Jap 305, 500 mg/kg IP, virus dose 22 multiples of LD50
[5] = Jap 305, 500 mg/kg PO, virus dose 15 multiples of LD50

## CCCc1[nH]nc(-c2ccncc2)c1-c1ccccc1O [Compound C, 3-(4-pyridyl)-4-(2-hydroxyphenyl)-5-n-propyl-pyrazole]
Influenza viruses; ip
  response vs control in vivo at 500 mg/kg: 184%
  responders at 500 mg/kg: 50%

## CCc1nn(C)c(-c2ccncc2)c1-c1ccccc1O [Compound G, 2-methyl-3-(4-pyridyl)-4-(2-hydroxyphenyl)-5-ethyl-pyrazole]
Influenza viruses; ip
  response vs control in vivo at 50 mg/kg: 130%
  response vs control in vivo at 500 mg/kg: 217%
  responders at 50 mg/kg: 0%
  responders at 500 mg/kg: 60%

## CCc1nn(C(C)C)c(-c2ccncc2)c1-c1ccccc1O [Compound H, 2-isopropyl-3-(4-pyridyl)-4-(2-hydroxyphenyl)-5-ethylpyrazole]
Influenza viruses; ip
  response vs control in vivo at 50 mg/kg: 135%
  response vs control in vivo at 500 mg/kg: 191%
  responders at 50 mg/kg: 0%
  responders at 500 mg/kg: 30%

## Cc1[nH]nc(-c2ccncc2)c1-c1ccccc1O [Compound B, 3-(4-pyridyl)-4-(2-hydroxyphenyl)-5-methylpyrazole]
Influenza viruses; ip
  response vs control in vivo at 500 mg/kg: 129%
  responders at 500 mg/kg: 0%

## CCCCc1[nH]nc(-c2ccncc2)c1-c1ccccc1O [Compound E, 3-(4-pyridyl)-4-(2-hydroxyphenyl)-5-n-butylpyrazole]
Influenza viruses; ip
  response vs control in vivo at 50 mg/kg: 130%
  response vs control in vivo at 500 mg/kg: 162%
  responders at 50 mg/kg: 10%
  responders at 500 mg/kg: 10%

## COc1ccc(O)c(-c2c(-c3ccncc3)n[nH]c2C)c1 [Compound F, 3-(4-pyridyl)-4-(2-hydroxy-5-methoxy-phenyl)-5-methylpyrazole]
Influenza viruses; ip
  response vs control in vivo at 500 mg/kg: 129%
  responders at 500 mg/kg: 0%

## CCCCn1nc(CC)c(-c2ccccc2O)c1-c1ccncc1 [Compound I, 2-n-butyl-3-(4-pyridyl)-4-(2-hydroxyphenyl)-5-ethylpyrazole]
Influenza viruses; ip
  response vs control in vivo at 5 mg/kg: 132%
  response vs control in vivo at 50 mg/kg: 148%
  response vs control in vivo at 500 mg/kg: 191%
  responders at 5 mg/kg: 0%
  responders at 50 mg/kg: 0%
  responders at 500 mg/kg: 14%

## CC(C)c1[nH]nc(-c2ccncc2)c1-c1ccccc1O [Compound D, 3-(4-pyridyl)-4-(2-hydroxyphenyl)-5-isopropylpyrazole]
Influenza virus Jap 305 [1]; intranasal 2.5% suspension
  MDD (Mean Day of Death): 10.50 days
  S.I.: 1.49
  Survival Percent: 40%
Influenza virus Jap 305 [1]; intranasal 5% suspension
  MDD (Mean Day of Death): 9.76 days
  S.I.: 1.38
  Survival Percent: 30%
Influenza virus Jap 305 [1]; intranasal 10% suspension
  MDD (Mean Day of Death): 13.00 days
  S.I.: 1.84
  Survival Percent: 60%
Influenza virus Jap 305 [2]; [3]
  Survival Percent: 30%
  S.I.: 1.31
Influenza virus Jap 305 [2]; [4]
  Survival Percent: 70%
  S.I.: 2.16
Influenza virus Jap 305 [2]; [5]
  Survival Percent: 100%
  S.I.: 2.12
Influenza viruses; ip
  response vs control in vivo at 5 mg/kg: 136%
  response vs control in vivo at 50 mg/kg: 131%
  response vs control in vivo at 500 mg/kg: 269%
  responders at 5 mg/kg: 0%
  responders at 50 mg/kg: 0%
  responders at 500 mg/kg: 100%
Influenza viruses; po
  response vs control in vivo at 50 mg/kg: 167%
  response vs control in vivo at 500 mg/kg: 214%
  responders at 50 mg/kg: 40%
  responders at 500 mg/kg: 60%
